Experimental data published in publication PMC4601772, “Investigating Apoptozole as a Chemical Probe for HSP70 Inhibition” (PLoS ONE, 2015).
One block for each compound: values may come before it.

Experiments:
human HSP72 [1] = molecular target: T1, human HSP72 (Homo sapiens, UniProt P0DMV8); test: Fluorescence polarisation competitive binding with ATP-FAM probe; conditions: for IC50: displacement of ATP-FAM (10 nM) from human HSP72, geometric mean of 3; for pIC50: displacement of ATP-FAM from human HSP72, geometric mean ± SEM, 3 measurements
T1 construct: 6xHis (N); human rhinovirus 3C protease cleavage site (N); made in house; host or cells: E. coli BL21-AI
Experimental: (§1) Unless otherwise stated the aqueous assay buffer contained 50 mM TRIS base pH 7.4, 150 mM NaCl, 6 mM MgCl2, 1 mM DTT, 0.1% (wt/wt) CHAPS. The assay was conducted using 384 Plus F ProxiPlates (PerkinElmer) with a final assay volume of 10 μL. Plates were centrifuged at 1000 rpm for 1 minute prior to incubation and read using an 2103 Envision Multilable Plate Reader. Excitation and emission wavelengths used for green probes were 480 nm and 535 nm, respectively. Excitation and emission wavelengths used for red probes were 620 nm and 688 nm, respectively. Fluorescence polarisation was measured in units of millipolarization (mP). All experiments were performed in triplicate, except for experiments with ATP-Cy5 and apoptozole-Cy5, which were performed in duplicate. Data were plotted and analyzed using GraphPad Prism 6, graphical data represents the geometric mean ± standard error of the mean for a single representative experiment.
Compounds (0.2 μL at 50 x screening concentration in DMSO) were dispensed using an ECHO 550 Liquid Handler (labcyte Inc.). To the corresponding wells was added, 5 μL of probe molecule (20 nM in assay buffer) and 5 μL of protein (two times their final concentration in assay buffer) to give a 50% bound fraction.[30] Tracer controls (10 nM probe molecule only) and bound tracer controls (10 nM probe in the presence of appropriate protein concentration) were included on each assay plate. IC50 determination was performed using non-linear least squares curve fitting (GraphPad Prism 6, log(inhibitor) vs. response—variable slope (four parameters)).

[2] = Dynamic light scattering (aggregation under aqueous conditions); assay type: physicochemical
Experimental: Apoptozole and VER-155008 (10 mM in DMSO) were diluted in 1 x PBS buffer with a final DMSO concentration of 2%, ± 0.01% v/v Triton X-100. Measurements were performed using a Protein Solutions DynaPro (Wyatt Technology) at room temperature. Data were acquired and processed by the software Dynamics, version 6.10 and calculation of particle radius performed by the cumulant analysis tool. The detector angle was 90°, the laser power was set to 30% and the integration time was 150 s. Each radius value presents three independent measurements, values are quotes as arithmetic mean ± standard error of the mean.

HCT-15 = system: HCT-15; design: method as in PMID 18729127; conditions: cited from earlier work
SK-OV-3 = system: SK-OV-3; design: method as in PMID 18729127; conditions: cited from earlier work
rat HSP72 [3] = molecular target: T2, rat HSP72 (Rattus norvegicus, UniProt P0DMW0); design: method as in PMID 18729127; conditions: SPR; cited from earlier work
T2 construct: purchased Enzo Life Sciences

bovine HSC70 = molecular target: bovine HSC70; design: method as in PMID 18729127; conditions: SPR; cited from earlier work
A549 = system: A549; design: method as in PMID 18729127; conditions: cited from earlier work
human HSP72 [4] = molecular target: T1, human HSP72; test: SPR Procedure A, biotinylated apoptozole 4 on neutravidin chip, human HSP72; assay type: binding; conditions: human HSP72 31–500 nM, control subtracted
Experimental: (§2) SPR analysis was performed on a Biacore T200 (GE Healthcare) at 25°C at a flow rate of 30 μL/min. The running buffer contained 1 x PBS and was prepared from 10 x concentrated PBS (GE Healthcare) on the day of use. Series S Sensor Chip CM5 was purchased from GE Healthcare, stored at […] and brought to room temperature prior to use.
(§3) The sensor chip was activated by injection of a 1:1 mixture of 500 mM NHS and 200 mM EDC for 420 seconds. Neutravidin (50 μg/mL in 10 mM sodium acetate buffer, pH 5.5) was injected across the chip surface for 60 seconds, followed by injection of 1 mM ethanolamine (pH 8.5) for 420 seconds. Biotinylated-apoptozole 4 (100 μM in 1:1 DMSO/PBS) was injected over the chip surface for 420 seconds. Human and rat HSP72 (500 nM in PBS) were injected at concentrations of 31–500 nM, injection time: 60 seconds, dissociation time: 60 seconds. The control lane was subjected to the conditions described above but derivatization with biotinylated apoptozole 4 was omitted.

rat HSP72 [5] = molecular target: T2, rat HSP72; test: SPR Procedure A, biotinylated apoptozole 4 on neutravidin chip, rat HSP72; assay type: binding; conditions: rat HSP72 31–500 nM, control subtracted
Experimental: as §2, §3

human HSP72 [6] = molecular target: T1, human HSP72; test: SPR Procedure B, apoptozole derivative 6 bound directly to CM5 chip; assay type: binding; conditions: three immobilisation levels, HSP72 up to 32 μM
Experimental: as §2
The sensor chip was activated by injection of a 1:1 mixture of 500 mM NHS and 200 mM EDC for 420 seconds. Apoptozole derivative 6 (100 μM in 1:1 DMSO/PBS) was injected over the chip surface, to give immobilization levels of approximately 4000, 8000 and 12000 RU. Ethanolamine (1 mM, pH 8.5) was then injected over the chip surface for 420 seconds. Human HSP72 (32 μM in PBS) was injected at concentrations of 62 nM–32 μM, injection time: 60 seconds, dissociation time: 60 seconds. The control lane was subjected to the conditions described above but derivatization with apoptozole derivative 6 was omitted.

human HSP72 [7] = molecular target: T1, human HSP72; test: Fluorescence polarisation KD determination of probes, HSP72; assay type: binding; conditions: for pKD: human HSP72, geometric mean ± SEM, 3 measurements; for Kd: human HSP72 titrated against fixed probe concentration, geometric mean of 3
Experimental: as §1
(§4) To each well, 5 μL of probe molecule (20 nM in assay buffer) and increasing concentrations of HSP70 protein (5 μL, two-fold dilution series) were added. Fluorescence polarisation values for tracer control wells (10 nM probe in assay buffer only) were subtracted from each data point prior to data analysis. KD determination was performed using non-linear regression analysis (GraphPad Prism 6, one site–specific binding model).

human HSC70 = molecular target: T3, human HSC70 (Homo sapiens, UniProt P11142); test: Fluorescence polarisation KD determination of probes, HSC70; assay type: binding; conditions: single determination
T3 construct: purchased Abcam
Experimental: as §1, §4

HSP70 = system: HSP70; design: method as in PMID 24265689; conditions: cited from earlier work
[8] = 10 μM, without Triton X-100, PBS 2% DMSO

T1 sequence (P0DMV8 whole entry): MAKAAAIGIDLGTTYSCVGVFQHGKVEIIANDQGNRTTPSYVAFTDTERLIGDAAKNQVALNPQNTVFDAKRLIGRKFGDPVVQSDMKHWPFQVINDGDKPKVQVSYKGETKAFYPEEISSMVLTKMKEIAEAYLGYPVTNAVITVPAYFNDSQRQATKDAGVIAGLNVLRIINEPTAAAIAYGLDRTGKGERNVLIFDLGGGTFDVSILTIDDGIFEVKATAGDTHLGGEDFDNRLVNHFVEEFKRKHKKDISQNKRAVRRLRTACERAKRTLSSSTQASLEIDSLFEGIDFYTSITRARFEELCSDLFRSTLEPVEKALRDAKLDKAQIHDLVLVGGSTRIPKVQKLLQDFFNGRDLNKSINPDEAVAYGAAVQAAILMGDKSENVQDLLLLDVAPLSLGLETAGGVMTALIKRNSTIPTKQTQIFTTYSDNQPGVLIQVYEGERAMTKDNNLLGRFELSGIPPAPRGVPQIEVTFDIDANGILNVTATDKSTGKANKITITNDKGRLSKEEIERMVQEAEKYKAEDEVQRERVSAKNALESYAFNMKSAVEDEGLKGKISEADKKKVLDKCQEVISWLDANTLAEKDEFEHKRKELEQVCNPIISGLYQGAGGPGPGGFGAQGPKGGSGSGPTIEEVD
T2 sequence (P0DMW0 2-641 limits assumed): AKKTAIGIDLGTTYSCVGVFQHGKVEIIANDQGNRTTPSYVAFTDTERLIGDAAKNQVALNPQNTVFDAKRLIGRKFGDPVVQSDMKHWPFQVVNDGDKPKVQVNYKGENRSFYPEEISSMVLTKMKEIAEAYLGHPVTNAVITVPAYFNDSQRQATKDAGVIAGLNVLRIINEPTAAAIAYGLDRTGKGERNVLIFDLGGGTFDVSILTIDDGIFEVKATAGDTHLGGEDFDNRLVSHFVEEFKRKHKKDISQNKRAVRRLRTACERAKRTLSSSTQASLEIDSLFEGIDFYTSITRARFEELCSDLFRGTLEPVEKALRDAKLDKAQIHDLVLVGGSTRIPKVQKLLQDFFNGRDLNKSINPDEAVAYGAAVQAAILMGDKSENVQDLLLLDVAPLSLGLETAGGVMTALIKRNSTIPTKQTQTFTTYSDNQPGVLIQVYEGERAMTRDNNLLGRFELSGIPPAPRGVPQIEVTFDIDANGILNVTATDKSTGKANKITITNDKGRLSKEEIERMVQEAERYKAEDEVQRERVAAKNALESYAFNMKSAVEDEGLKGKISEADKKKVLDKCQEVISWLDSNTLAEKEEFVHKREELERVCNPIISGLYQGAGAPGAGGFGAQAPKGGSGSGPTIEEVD
T3 sequence (P11142 whole entry): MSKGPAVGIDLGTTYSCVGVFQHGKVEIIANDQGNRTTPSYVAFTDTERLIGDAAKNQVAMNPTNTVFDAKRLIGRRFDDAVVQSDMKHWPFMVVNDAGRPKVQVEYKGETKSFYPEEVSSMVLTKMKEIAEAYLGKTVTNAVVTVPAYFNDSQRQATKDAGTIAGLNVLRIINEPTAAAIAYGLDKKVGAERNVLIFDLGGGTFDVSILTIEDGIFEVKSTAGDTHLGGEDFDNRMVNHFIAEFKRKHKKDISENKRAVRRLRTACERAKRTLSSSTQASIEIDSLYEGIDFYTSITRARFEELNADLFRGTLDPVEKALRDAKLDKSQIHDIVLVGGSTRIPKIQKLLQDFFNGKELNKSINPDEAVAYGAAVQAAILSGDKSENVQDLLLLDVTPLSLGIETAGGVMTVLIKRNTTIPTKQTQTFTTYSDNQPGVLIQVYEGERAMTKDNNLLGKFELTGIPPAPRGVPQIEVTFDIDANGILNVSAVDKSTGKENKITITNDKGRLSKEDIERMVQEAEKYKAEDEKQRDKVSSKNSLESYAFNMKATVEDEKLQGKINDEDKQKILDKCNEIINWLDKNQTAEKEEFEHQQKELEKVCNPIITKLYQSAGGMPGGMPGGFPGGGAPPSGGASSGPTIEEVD

Compound: Nc1ncnc2c1ncn2[C@@H]1O[C@H](COP(=O)(O)OP(=O)(O)O)[C@@H](O)[C@H]1O [ADP]
- IC50 (human HSP72 [1]): 670 nM
- pIC50 (human HSP72 [1]): 6.17 ± 0.11

Compound: Nc1ncnc2c1ncn2[C@@H]1O[C@H](COP(=O)(O)OP(=O)(O)OP(=O)(O)O)[C@@H](O)[C@H]1O [ATP]
- IC50 (human HSP72 [1]): 1200 nM
- pIC50 (human HSP72 [1]): 5.94 ± 0.05

Compound: N^6-(6-Amino)hexyl-ATP-6-FAM [ATP-FAM]
- pKD (human HSP72 [7]): 6.50 ± 0.04
- Kd (human HSP72 [7]): 320 nM
- Kd (human HSC70): 970 nM

Compound: pifithrin-μ
- Mode of binding to HSP70 (HSP70): unspecific, detergent-like way

Now from value to compound, other results behind:

- Aggregate formation ([2]; 10 μM): no evidence of aggregate formation
- Intensity ([2]; 10 μM, with 0.01% Triton X-100): 318.2 ± 61.3 kcps
- Radius ([2]; 10 μM, with 0.01% Triton X-100): 101.1 ± 9.0 nm
- Intensity ([2]; 10 μM, without Triton X-100): 63.2 ± 5.8 kcps
- Radius [2, 8]: 88.5 ± 8.3 nm
- IC50 (human HSP72 [1]): 490 nM
- pIC50 (human HSP72 [1]): 6.31 ± 0.06
Compound: N#Cc1ccc(COC[C@H]2O[C@@H](n3c(NCc4ccc(Cl)c(Cl)c4)nc4c(N)ncnc43)[C@H](O)[C@@H]2O)cc1 [VER-155008]

- Intensity ([2]; 1 μM, without Triton X-100): 132.6 ± 39.7 kcps
- Radius ([2]; 1 μM, without Triton X-100): 89.3 ± 5.8 nm
- Intensity ([2]; 5 μM, without Triton X-100): 1047.5 ± 183.1 kcps
- Radius ([2]; 5 μM, without Triton X-100): 454.4 ± 36.4 nm
- Intensity ([2]; 10 μM, with 0.01% Triton X-100): 2350.0 ± 173.1 kcps
- Radius ([2]; 10 μM, with 0.01% Triton X-100): 86.5 ± 2.1 nm
- Intensity ([2]; 10 μM, without Triton X-100): 1441.1 ± 186.5 kcps
- Radius [2, 8]: 521.5 ± 30.9 nm
- Concentration at which large colloidal aggregates form ([2]; aqueous conditions): ≥ 5 µM
- Particle radius ([2]; concentrations ≥ 5 μM, without detergent): > 450 nm
Compound: COc1ccc(-c2nc(-c3cc(C(F)(F)F)cc(C(F)(F)F)c3)n(Cc3ccc(C(N)=O)cc3)c2-c2ccc(OC)cc2)cc1 [apoptozole]
- GI50 (HCT-15): 250 nM
- GI50 (SK-OV-3): 220 nM
- ATP-competitive binding (displacement of ATP-FAM probe) (human HSP72 [1]; concentrations up to 80 μM): no displacement of the ATP-FAM probe observed
- Kd (rat HSP72 [3]): 140 nM
- Kd (bovine HSC70): 210 nM
- GI50 (A549): 130 nM

- Binding interaction (SPR) (human HSP72 [4]): no evidence of binding interactions
- Binding interaction (SPR) (rat HSP72 [5]): no evidence of binding interactions
Compound: COc1ccc(-c2nc(-c3cc(C(F)(F)F)cc(C(F)(F)F)c3)n(Cc3ccc(C(=O)NCCOCCOCCNC(=O)CCC(=O)NCCOCCOCCNC(=O)CCCC[C@@H]4SC[C@@H]5NC(=O)N[C@@H]54)cc3)c2-c2ccc(OC)cc2)cc1 [compound 4, N^1-(2-(2-(2-(4-((2-(3,5-Bis(trifluoromethyl)phenyl)-4,5-bis(4-methoxyphenyl)-1H-imidazol-1-yl)methyl)benzamido)ethoxy)ethoxy)ethyl)-N^4-(2-(2-(2-(5-((3aS,4S,6aR)-2-oxohexahydro-1H-thieno[3,4-d]imidazol-4-yl)pentanamido)ethoxy)ethoxy)ethyl)succinamide]

- Binding interaction (SPR) (human HSP72 [6]): no binding interactions were observed
Compound: COc1ccc(-c2nc(-c3cc(C(F)(F)F)cc(C(F)(F)F)c3)n(Cc3ccc(C(=O)NCCOCCOCCNC(=O)CCC(=O)NCCOCCOCCN)cc3)c2-c2ccc(OC)cc2)cc1 [compound 6, N^1-(2-(2-(2-Aminoethoxy)ethoxy)ethyl)-N^4-(2-(2-(2-(4-((2-(3,5-bis(trifluoromethyl)phenyl)-4,5-bis(4-methoxyphenyl)-1H-imidazol-1-yl)methyl)benzamido)ethoxy)ethoxy)ethyl)succinamide]

- pKD (human HSP72 [7]): 5.95 ± 0.02
- Kd (human HSP72 [7]): 1100 nM
Compound: N^6-(6-Amino)hexyl-ATP-Cy5
